# Reference: paper PMC11089505, “Structural Elucidation and Antiviral Activity of Covalent Cathepsin L Inhibitors” (Journal of Medicinal Chemistry, 2024)
# Values joined by “and” are separate entries in the source; they are usually repeats but may differ in a detail not shown here. Equal values may be shown once. Read-outs that look alike come from different tables or passages of the source. Peptide text beside a SMILES is read from it. * marks the point of attachment. Cbz = O=C(OCc1ccccc1)*
# Legend:
# [1] = system: SARS-CoV-2-GFP in Vero E6 cells; test: microbe, parasite or virus in culture; format: cell-based; conditions: Severe acute respiratory syndrome coronavirus 2, Vero C1008, 48 h, read-out: EC50 (48 h)
# CatL [2] = biological target: T1, CatL (Homo sapiens, UniProt P07711, T223A); test: NanoDSF, thermal stability of CatL; format: binding
# T1 construct: made in house; host or cells: Komagataella pastoris strain GS115
# T1 sequence (P07711 114-333 T223A): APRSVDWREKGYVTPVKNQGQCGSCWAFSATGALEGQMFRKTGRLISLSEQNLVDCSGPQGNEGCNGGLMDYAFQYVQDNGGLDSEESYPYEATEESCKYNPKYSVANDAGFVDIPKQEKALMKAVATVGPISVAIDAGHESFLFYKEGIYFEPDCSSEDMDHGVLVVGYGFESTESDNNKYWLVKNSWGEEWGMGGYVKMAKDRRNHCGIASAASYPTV
# [3] = Cell viability assay (CellTiter-Blue); conditions: African green monkey
# CatL [4] = biological target: T1, CatL; test: CatL inactivation assay comparing epoxides at pH 6 and pH 4; format: biochemical
# Description: (§1) Experiments were performed in a solution of 50 mM sodium acetate, pH 4.0, 50 mM NaCl, 0.1% PEG 6000, and 5 mM DTT. Distinct assays with epoxide inhibitors at pH 6.0 were performed in 50 mM sodium phosphate buffer, 50 mM NaCl, 5 mM DTT, 0.1% PEG 6000, adjusted to pH 6.0.
# (§2) M1000 pro plate reader (Tecan), the fluorescent peptide substrate Z-RR-AMC, and excitation and emission wavelengths of 370 and 460 nm, respectively.
# (§3) At first, the inhibitor concentration span was optimized for each inhibitor and the assay buffer. For this initial screening, CatL (5 nM) was mixed with different concentrations of inhibitors (1 nM–50 μM) to determine the range of their inhibition. […] Reaction data were fitted to the […] in GraphPad Prism 9 software: Y = bottom + (top – bottom)/(1 + 10^∧((log IC50 – X) × HillSlope)); X is the log of dose or concentration, Y is the response (fluorescence signal), decreasing as X increases, top and bottom are the plateaus in the same units as Y, log IC50 same log units as X, HillSlope is the slope factor or called the Hill slope.
# Figure S7. Inactivation of CatL.
# (1 picture or pasted object on this page, not shown here)
# cathepsin L = biological target: T2, cathepsin L (Homo sapiens, UniProt P07711, T223A); test: MALDI-TOF analysis of covalent CatL-inhibitor complex; format: binding; conditions: 37 °C
# T2 construct: made in house; host or cells: Komagataella pastoris strain GS115
# T2 sequence (P07711 114-333 T223A): as above
# Description: Experiments were performed in two different buffers, one at pH 4.0 (100 mM sodium acetate, pH 4.0, 50 mM NaCl, 5 mM DTT) and the other at pH 6.0 (100 mM sodium phosphate, pH 6.0, 50 mM NaCl, 5 mM DTT).
# Mass spectrometry was performed on an UltrafleXtreme III MALDI-TOF/TOF mass spectrometer (Bruker, Billerica, MA). Samples were prepared on a standard steel target as described by Wenzel et al.[71] The spectra were acquired in a linear mode with a mass range of 20–50 kDa. […] The spectra were externally calibrated with aldolase and BSA standards (Sigma-Aldrich). Acquisition, processing, and calibration were performed using FlexControl 3.0 and FlexAnalysis software (Bruker).
# (B) Two-dimensional interaction plot based on chain A according to Dis-
# Figure S6. […] Activated matured cathepsin L (3 µM)
# Molar ratio 1:10 pH = 4.0
# Molar ratio 1:10 pH = 6.0 […]
# SARS-CoV-2 Mpro = SARS-CoV-2 Mpro (Severe acute respiratory syndrome coronavirus 2, UniProt P0DTD1); format: binding; conditions: 2:1 compound to protein
# Vero E6 cells = test: Cell viability assay (CellTiter-Blue); conditions: Vero E6 cells
# [5] = in DMSO; compound supply and quality parameters, supplier named in Table S4; cited from earlier work
# CatL [6] = biological target: T1, CatL; test: CatL inhibition assay (Ki), substrate Z-RR-AMC; format: biochemical
# Description: as §1, §2, §3
# CatL [7] = conditions: Table S1, SI reference list; cited from earlier work
smiles,measurement,setting,value
"O=C(NCc1ccccc1)[C@H](Cc1ccccc1)NC(=O)[C@H]1O[C@@H]1C(=O)NCCc1ccc(O)cc1 [CAA0225, (2S.3S)-2-N-[(1S)-1-(Benzylcarbamoyl)-2-phenylethyl]-3-N-[2-(4-hydroxyphenyl)ethyl]oxirane-2.3-dicarboxamide]",EC50,[1],< 500 nM
same,"2:1, Tm average (CatL)",CatL [2]; 2:1 compound to protein,70 °C
same,"20:1, Tm average (CatL)",CatL [2]; 20:1 compound to protein,78.5 °C
same,"viability at 48 h, 1e-05 µM",[3],103%
same,"viability at 48 h, 0.0001 µM",[3],103%
same,"viability at 48 h, 0.001 µM",[3],101%
same,"viability at 48 h, 0.01 µM",[3],104%
same,"viability at 48 h, 0.1 µM",[3],100%
same,"viability at 48 h, 1 µM",[3],105%
same,"viability at 48 h, 10 µM",[3],105%
same,Inactivation Rate,"CatL [4]; CAA0225, pH 4, 4.39 nM",0.0001763 per second
same,Inactivation Rate,"CatL [4]; CAA0225, pH 4, 5.85 nM",0.0002627 per second
same,Inactivation Rate,"CatL [4]; CAA0225, pH 4, 6.59 nM",0.0001334 per second
same,Inactivation Rate,"CatL [4]; CAA0225, pH 4, 8.78 nM",0.0003675 per second and 0.0002752 per second
same,Inactivation Rate,"CatL [4]; CAA0225, pH 4, 9.88 nM",0.0001166 per second
same,Inactivation Rate,"CatL [4]; CAA0225, pH 4, 13.17 nM",0.0002828 per second and 0.0003022 per second
same,Inactivation Rate,"CatL [4]; CAA0225, pH 4, 14.82 nM",0.0003059 per second
same,Inactivation Rate,"CatL [4]; CAA0225, pH 4, 19.75 nM",0.0002683 per second and 0.0004006 per second
same,Inactivation Rate,"CatL [4]; CAA0225, pH 4, 22.22 nM",0.0004569 per second
same,Inactivation Rate,"CatL [4]; CAA0225, pH 4, 29.63 nM",0.0004182 per second and 0.0006192 per second
same,Inactivation Rate,"CatL [4]; CAA0225, pH 4, 33.34 nM",0.0007535 per second
same,Inactivation Rate,"CatL [4]; CAA0225, pH 4, 44.44 nM",0.0007461 per second and 0.001023 per second
same,Inactivation Rate,"CatL [4]; CAA0225, pH 4, 50.00 nM",0.001182 per second
same,Inactivation Rate,"CatL [4]; CAA0225, pH 4, 66.67 nM",0.001354 per second and 0.001764 per second
same,Inactivation Rate,"CatL [4]; CAA0225, pH 4, 100.00 nM",0.001979 per second
same,Inactivation Rate,"CatL [4]; CAA0225, pH 6, 4.39 nM",0.0002723 per second
same,Inactivation Rate,"CatL [4]; CAA0225, pH 6, 5.85 nM",0.0006424 per second and 0.0005666 per second
same,Inactivation Rate,"CatL [4]; CAA0225, pH 6, 6.59 nM",0.0004593 per second
same,Inactivation Rate,"CatL [4]; CAA0225, pH 6, 8.78 nM",0.001025 per second and 0.001163 per second
same,Inactivation Rate,"CatL [4]; CAA0225, pH 6, 9.88 nM",0.0009595 per second
same,Inactivation Rate,"CatL [4]; CAA0225, pH 6, 13.17 nM",0.001923 per second and 0.002013 per second
same,Inactivation Rate,"CatL [4]; CAA0225, pH 6, 14.82 nM",0.001982 per second
same,Inactivation Rate,"CatL [4]; CAA0225, pH 6, 19.75 nM",0.00308 per second and 0.003226 per second
same,Inactivation Rate,"CatL [4]; CAA0225, pH 6, 22.22 nM",0.003696 per second
same,Inactivation Rate,"CatL [4]; CAA0225, pH 6, 29.63 nM",0.00521 per second and 0.005796 per second
same,Inactivation Rate,"CatL [4]; CAA0225, pH 6, 33.34 nM",0.006322 per second
same,Inactivation Rate,"CatL [4]; CAA0225, pH 6, 44.44 nM",0.007455 per second and 0.01045 per second
same,Inactivation Rate,"CatL [4]; CAA0225, pH 6, 50.00 nM",0.009878 per second
same,Inactivation Rate,"CatL [4]; CAA0225, pH 6, 66.66 nM",0.01058 per second and 0.01915 per second
same,Mass change of cathepsin L main peak with vs without inhibitor,"cathepsin L; pH 4.0, molar ratio 1:10, 15 min",477.7 Da
same,Mass change of cathepsin L main peak with vs without inhibitor,"cathepsin L; pH 6.0, molar ratio 1:10, 15 min",493.8 Da
same,"2:1, Tm average (Mpro)",SARS-CoV-2 Mpro,53.3 °C
"CC(C)C[C@@H](C=O)NC(=O)[C@H](CC(C)C)NC(=O)[C@H](CC(C)C)NC(=O)OCc1ccccc1 [MG-132, Z-Leu-Leu-Leu-aldehyde] (Cbz-Leu-Leu-Leu-aldehyde)","2:1, Tm average (CatL)",CatL [2],79.7 °C
same,"20:1, Tm average (CatL)",CatL [2],81.7 °C
same,"ΔTm [K] for CatL, 2:1 ratio",CatL [2],16.6 ± 0.1 K
same,"ΔTm (for CatL), 2:1 compound to protein mixing ratio",CatL [2]; pH 5,"16,6 ± 0,1 °C and 16.6 °C"
same,"ΔTm (for CatL), 20:1 compound to protein mixing ratio",CatL [2]; pH 5,"18,6 ± 0,1 °C and 18.6 °C"
same,cell toxicity,Vero E6 cells,notably high cell toxicity
"CCc1ccccc1NC(=O)CSC(=O)NNC(=O)[C@H](Cc1c[nH]c2ccccc12)NC(=O)OC(C)(C)C [TC-I, tert-Butyl N-[(2S)-1-[2-[2-(2-ethylanilino)-2-oxoethyl]sulfanylcarbonylhydrazinyl]-3-(1H-indol-3-yl)-1-oxopropan-2-yl]carbamate]",Solvent (max. solubility),[5],50 mg/mL
same,"ΔTm (for CatL), 2:1 compound to protein mixing ratio","CatL [2]; 5 µM CatL, pH 5.0, 2% DMSO, 2:1","18,4 ± 0,1 °C and 18.4 °C"
same,"ΔTm (for CatL), 20:1 compound to protein mixing ratio","CatL [2]; 5 µM CatL, pH 5.0, 2% DMSO, 20:1","18,8 ± 0,0 °C and 18.8 °C"
same,"2:1, Tm average (CatL)",CatL [2]; 2:1 compound to protein,81.5 °C
same,"20:1, Tm average (CatL)",CatL [2]; 20:1 compound to protein,81.9 °C
same,"ΔTm [K] for CatL, 2:1 ratio","CatL [2]; Table S1, 2:1 ratio",18.4 ± 0.1 K
same,Ki,"CatL [6]; CatL, Z-RR-AMC, pH 4.0, 37 °C, read-out: Ki",71.4 nM
same,Residual activity (Vi/V0),CatL [6]; TC-I 0.665 nM,0.9864 and 1.185
same,remaining activity at 0.000665 µM,"CatL [6]; TC-I 0.665 nM, read-out: Residual activity (Vi/V0)",100%
same,Residual activity (Vi/V0),CatL [6]; TC-I 1.109 nM,0.9905 and 1.057
same,remaining activity at 0.001109 µM,"CatL [6]; TC-I 1.109 nM, read-out: Residual activity (Vi/V0)",98.8%
same,Residual activity (Vi/V0),CatL [6]; TC-I 1.849 nM,0.9855 and 1.105
same,remaining activity at 0.001849 µM,"CatL [6]; TC-I 1.849 nM, read-out: Residual activity (Vi/V0)",103%
same,Residual activity (Vi/V0),CatL [6]; TC-I 3.082 nM,1.069 and 1.158
same,remaining activity at 0.003082 µM,"CatL [6]; TC-I 3.082 nM, read-out: Residual activity (Vi/V0)",111%
same,Residual activity (Vi/V0),CatL [6]; TC-I 5.140 nM,1.026 and 1.097
same,remaining activity at 0.00514 µM,"CatL [6]; TC-I 5.140 nM, read-out: Residual activity (Vi/V0)",104%
same,Residual activity (Vi/V0),CatL [6]; TC-I 8.568 nM,1.0471 and 1.09
same,remaining activity at 0.008568 µM,"CatL [6]; TC-I 8.568 nM, read-out: Residual activity (Vi/V0)",105%
same,Residual activity (Vi/V0),CatL [6]; TC-I 14.274 nM,0.9298 and 0.9778
same,remaining activity at 0.014274 µM,"CatL [6]; TC-I 14.274 nM, read-out: Residual activity (Vi/V0)",100%
same,Residual activity (Vi/V0),CatL [6]; TC-I 23.798 nM,0.9534 and 0.9214
same,remaining activity at 0.023798 µM,"CatL [6]; TC-I 23.798 nM, read-out: Residual activity (Vi/V0)",93.3%
same,Residual activity (Vi/V0),CatL [6]; TC-I 39.658 nM,0.9235 and 0.9214
same,remaining activity at 0.039658 µM,"CatL [6]; TC-I 39.658 nM, read-out: Residual activity (Vi/V0)",74.6%
same,Residual activity (Vi/V0),CatL [6]; TC-I 66.096 nM,0.583 and 0.7717 and 0.8256
same,Residual activity (Vi/V0),CatL [6]; TC-I 110.160 nM,0.683 and 0.704
same,remaining activity at 0.11016 µM,"CatL [6]; TC-I 110.160 nM, read-out: Residual activity (Vi/V0)",51.2%
same,Residual activity (Vi/V0),CatL [6]; TC-I 183.600 nM,0.3014 and 0.3466 and 0.5578
same,IC50,CatL [7],6.9 nM
